Source: ChEMBL document CHEMBL3885881, “DrugMatrix”

Species: Rattus norvegicus
Assay: DrugMatrix - Regimen: Daily Repeat
Format: toxicity, organism-based, Sprague-Dawley
Set-up: regimen Daily Repeat, gender Male, age 6-8 weeks
Conditions: in vivo, iv, vehicle 100 % SALINE; for ABSOLUTE BASOPHIL / ABSOLUTE EOSINOPHIL / ABSOLUTE LYMPHOCYTE / ABSOLUTE MONOCYTE / ABSOLUTE SEGMENTED NEUTROPHIL / BASOPHIL / EOSINOPHIL / ERYTHROCYTE COUNT / HEMATOCRIT / HEMOGLOBIN / LEUKOCYTE COUNT / LYMPHOCYTE / MEAN CORPUSCULAR HEMOGLOBIN / MEAN CORPUSCULAR HEMOGLOBIN CONCENTRATION / MEAN CORPUSCULAR VOLUME / MONOCYTE / NEUTROPHIL / NUCLEATED RED BLOOD CELLS / PLATELET COUNT: tissue Blood; for ALANINE AMINOTRANSFERASE / ALBUMIN / ALKALINE PHOSPHATASE / ASPARTATE AMINOTRANSFERASE / BLOOD UREA NITROGEN / CARBON DIOXIDE / CHLORIDE / CHOLESTEROL / CREATINE PHOSPHOKINASE / CREATININE / GLUCOSE / LACTATE DEHYDROGENASE / LIPASE / PHOSPHORUS / POTASSIUM / SODIUM / TOTAL BILIRUBIN / TOTAL PROTEIN / URIC ACID: tissue Plasma
[1] = 0.5 mg/kg, 120 h, dose level Low, time 5 day
[2] = […], 72 h, dose 1.7 mg/Kg, dose level High, time 3 day
[3] = […], 120 h, dose 1.7 mg/Kg, dose level High, time 5 day

CO[C@@]12[C@H](COC(N)=O)C3=C(C(=O)C(C)=C(N)C3=O)N1C[C@@H]1N[C@@H]12 [MITOMYCIN]
ABSOLUTE BASOPHIL [1]: 0 CELLS/uL
ABSOLUTE EOSINOPHIL [1]: 31 CELLS/uL
ABSOLUTE LYMPHOCYTE [1]: 7760.33 CELLS/uL
ABSOLUTE MONOCYTE [1]: 22.67 CELLS/uL
ABSOLUTE SEGMENTED NEUTROPHIL [1]: 286 CELLS/uL
BASOPHIL [1]: 0%
EOSINOPHIL [1]: 0.33%
ERYTHROCYTE COUNT [1]: 6.12 x10E6/uL
HEMATOCRIT [1]: 36.83%
HEMOGLOBIN [1]: 14.33 G/DL
LEUKOCYTE COUNT [1]: 8.1 x10E3/uL
LYMPHOCYTE [1]: 96%
MEAN CORPUSCULAR HEMOGLOBIN [1]: 23.4 pg
MEAN CORPUSCULAR HEMOGLOBIN CONCENTRATION [1]: 38.9 G/DL
MEAN CORPUSCULAR VOLUME [1]: 60.2 fL
MONOCYTE [1]: 0.33%
NEUTROPHIL [1]: 3.33%
NUCLEATED RED BLOOD CELLS [1]: 0.67 /100WBC
PLATELET COUNT [1]: 1302.33 x10E3/uL
ALANINE AMINOTRANSFERASE [1]: 47.33 u/L
ALBUMIN [1]: 4.03 G/DL
ALKALINE PHOSPHATASE [1]: 285.67 u/L
ASPARTATE AMINOTRANSFERASE [1]: 78 u/L
BLOOD UREA NITROGEN [1]: 16.33 mg/dL
CARBON DIOXIDE [1]: 29.33 mmol/L
CHLORIDE [1]: 101.67 MEQ/L
CHOLESTEROL [1]: 67.33 mg/dL
CREATINE PHOSPHOKINASE [1]: 203 u/L
CREATININE [1]: 0.34 mg/dL
GLUCOSE [1]: 154 mg/dL
LACTATE DEHYDROGENASE [1]: 120 u/L
LIPASE [1]: 11 u/L
PHOSPHORUS [1]: 10.5 mg/dL
POTASSIUM [1]: 4.84 MEQ/L
SODIUM [1]: 145.67 MEQ/L
TOTAL BILIRUBIN [1]: 0.13 mg/dL
TOTAL PROTEIN [1]: 5.83 G/DL
URIC ACID [1]: 0.57 mg/dL
ABSOLUTE BASOPHIL [2]: 0 CELLS/uL
ABSOLUTE EOSINOPHIL [2]: 31.67 CELLS/uL
ABSOLUTE LYMPHOCYTE [2]: 7497.33 CELLS/uL
ABSOLUTE MONOCYTE [2]: 0 CELLS/uL
ABSOLUTE SEGMENTED NEUTROPHIL [2]: 1104.33 CELLS/uL
BASOPHIL [2]: 0%
EOSINOPHIL [2]: 0.33%
ERYTHROCYTE COUNT [2]: 5.47 x10E6/uL
HEMATOCRIT [2]: 33.9%
HEMOGLOBIN [2]: 13.43 G/DL
LEUKOCYTE COUNT [2]: 8.63 x10E3/uL
LYMPHOCYTE [2]: 86.67%
MEAN CORPUSCULAR HEMOGLOBIN [2]: 24.6 pg
MEAN CORPUSCULAR HEMOGLOBIN CONCENTRATION [2]: 39.63 G/DL
MEAN CORPUSCULAR VOLUME [2]: 62.07 fL
MONOCYTE [2]: 0%
NEUTROPHIL [2]: 13%
NUCLEATED RED BLOOD CELLS [2]: 0 /100WBC
PLATELET COUNT [2]: 1626.67 x10E3/uL
ALANINE AMINOTRANSFERASE [2]: 35.67 u/L
ALBUMIN [2]: 4.03 G/DL
ALKALINE PHOSPHATASE [2]: 211 u/L
ASPARTATE AMINOTRANSFERASE [2]: 72.33 u/L
BLOOD UREA NITROGEN [2]: 13.33 mg/dL
CARBON DIOXIDE [2]: 29.33 mmol/L
CHLORIDE [2]: 99.33 MEQ/L
CHOLESTEROL [2]: 71.33 mg/dL
CREATINE PHOSPHOKINASE [2]: 245.67 u/L
CREATININE [2]: 0.15 mg/dL
GLUCOSE [2]: 145.33 mg/dL
LACTATE DEHYDROGENASE [2]: 173 u/L
LIPASE [2]: 8 u/L
PHOSPHORUS [2]: 11.53 mg/dL
POTASSIUM [2]: 5.56 MEQ/L
SODIUM [2]: 141.2 MEQ/L
TOTAL BILIRUBIN [2]: 0.1 mg/dL
TOTAL PROTEIN [2]: 5.6 G/DL
URIC ACID [2]: 1.6 mg/dL
ABSOLUTE BASOPHIL [3]: 0 CELLS/uL
ABSOLUTE EOSINOPHIL [3]: 0 CELLS/uL
ABSOLUTE LYMPHOCYTE [3]: 2370 CELLS/uL
ABSOLUTE MONOCYTE [3]: 67 CELLS/uL
ABSOLUTE SEGMENTED NEUTROPHIL [3]: 663 CELLS/uL
BASOPHIL [3]: 0%
EOSINOPHIL [3]: 0%
ERYTHROCYTE COUNT [3]: 6.15 x10E6/uL
HEMATOCRIT [3]: 38.97%
HEMOGLOBIN [3]: 14.9 G/DL
LEUKOCYTE COUNT [3]: 3.1 x10E3/uL
LYMPHOCYTE [3]: 78.33%
MEAN CORPUSCULAR HEMOGLOBIN [3]: 24.23 pg
MEAN CORPUSCULAR HEMOGLOBIN CONCENTRATION [3]: 38.23 G/DL
MEAN CORPUSCULAR VOLUME [3]: 63.33 fL
MONOCYTE [3]: 2%
NEUTROPHIL [3]: 19.67%
NUCLEATED RED BLOOD CELLS [3]: 0 /100WBC
PLATELET COUNT [3]: 1554 x10E3/uL
ALANINE AMINOTRANSFERASE [3]: 21.33 u/L
ALBUMIN [3]: 3.37 G/DL
ALKALINE PHOSPHATASE [3]: 94.67 u/L
ASPARTATE AMINOTRANSFERASE [3]: 57 u/L
BLOOD UREA NITROGEN [3]: 15 mg/dL
CARBON DIOXIDE [3]: 30.67 mmol/L
CHLORIDE [3]: 100.33 MEQ/L
CHOLESTEROL [3]: 84.67 mg/dL
CREATINE PHOSPHOKINASE [3]: 265.67 u/L
CREATININE [3]: 0.26 mg/dL
GLUCOSE [3]: 154 mg/dL
LACTATE DEHYDROGENASE [3]: 136.67 u/L
LIPASE [3]: 10.67 u/L
PHOSPHORUS [3]: 8.73 mg/dL
POTASSIUM [3]: 4.86 MEQ/L
SODIUM [3]: 144.3 MEQ/L
TOTAL BILIRUBIN [3]: 0.1 mg/dL
TOTAL PROTEIN [3]: 5.13 G/DL
URIC ACID [3]: 0.57 mg/dL
